Source: PMC7343187, “Control of mRNA translation by dynamic ribosome modification” (PLoS Genetics, 2020)
Blank lines part the entries; values can stand above or below the compound they belong to.

What was measured:
[1] = molecular target: T1, RimK (Pseudomonas fluorescens, UniProt C3KE61); experiment: PK/LDH-coupled ATPase assay; RpsF glutamation SDS-PAGE gel shift; format: biochemical; details: activator; ATPase with 25 uM cdG, 2.5 uM RimK, pH 9.0, 20 mM MgSO4, 25 °C
T1 construct: His6-tagged, expressed in E. coli BL21(DE3) pLysS, Ni-NTA purified
T1 sequence (C3KE61 1-301): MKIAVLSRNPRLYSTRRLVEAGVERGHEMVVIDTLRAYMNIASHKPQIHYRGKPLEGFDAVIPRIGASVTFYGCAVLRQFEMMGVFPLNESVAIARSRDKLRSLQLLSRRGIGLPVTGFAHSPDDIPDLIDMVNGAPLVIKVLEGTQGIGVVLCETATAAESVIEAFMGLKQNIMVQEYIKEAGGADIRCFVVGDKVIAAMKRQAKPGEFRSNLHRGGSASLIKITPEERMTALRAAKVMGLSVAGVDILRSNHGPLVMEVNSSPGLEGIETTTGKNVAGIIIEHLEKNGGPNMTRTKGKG

[2] = molecular target: T1, RimK; experiment: RpsF glutamation assay, SDS-PAGE and mass spectrometry; format: biochemical; details: acceptor RpsF10glu (SBW25); 20 mM ATP, 20 mM MgSO4, pH 9.0, room temperature
[3] = molecular target: SBW25 RimK (Pseudomonas fluorescens SBW25) (UniProt C3KE61)
[4] = molecular target: T1, RimK; experiment: PK/LDH-coupled ATPase assay (NADH oxidation); format: biochemical; details: 100 mM Tris-Cl pH 9.0, 20 mM MgSO4, 25 °C

Compound: Nc1nc2c(ncn2[C@@H]2O[C@@H]3COP(=O)(O)O[C@H]4[C@@H](O)[C@H](n5cnc6c(=O)[nH]c(N)nc65)O[C@@H]4COP(=O)(O)O[C@H]3[C@H]2O)c(=O)[nH]1 [cdG, cyclic-di-GMP]
PK/LDH-coupled ATPase assay; RpsF glutamation SDS-PAGE gel shift [1]: cdG was shown to stimulate both ATPase activity (Fig 2A) and RpsF modification (Fig 2B)

Compound: N[C@@H](CCC(=O)O)C(=O)O [L-glutamate]
RpsF glutamation assay, SDS-PAGE and mass spectrometry [2]: addition of RimK resulted in unregulated modification of RpsF10glu in a glutamate-dependent manner

Kd fitted to the RimK ATPase activity data of Fig 2E with the four-state kinetic model (RimK, RimK.RimA, RimK.cdG, RimK.cdG.RimA) [3]: 200 nM
Kd fitted to the RimK ATPase activity data of Fig 2E with the two-state kinetic model (RimK, RimK*), which the paper calls unlikely [3]: 83.2 nM
Compound: SBW25 RimA (enzyme)

Compound: Nc1ncnc2c1ncn2[C@@H]1O[C@H](COP(=O)(O)OP(=O)(O)OP(=O)(O)O)[C@@H](O)[C@H]1O [ATP]
PK/LDH-coupled ATPase assay (NADH oxidation) [4]: plotting the specific activity of the enzyme (nmol ATP hydrolyzed/min/mg protein) versus ATP concentration
